The values below come from patent US20180353445A1, “METHODS AND COMPOSITIONS RELATING TO PROTEASOME INHIBITOR RESISTANCE” (Whitehead Institute for Biomedical Research, priority 2017, published 2018).

The structures appear in SMILES notation. “Also recorded” adds a separate entry of the source.

Assay type in all cases: biochemical
Assay [1] concerns the target T1, FDX1 (Homo sapiens, UniProt P10109).
T1 construct: made in house
T1 sequence (P10109 62-184): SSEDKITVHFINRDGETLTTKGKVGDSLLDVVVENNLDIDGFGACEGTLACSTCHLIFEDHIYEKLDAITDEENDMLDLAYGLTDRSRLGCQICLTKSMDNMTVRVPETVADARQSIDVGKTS
In words: Electron transfer assay, reduced FDX1 to SDA complex. The note with it: upon addition of cysteine. The text has this:
Fe—S clusters are generated from sulfur extracted from cysteine by the iron sulfur-cluster (ISC) core complex (NFS1-ISD11-Acp-ISCU)2 and iron. A reductant (FDX1 or FDX2) is required for Fc-S cluster biosynthesis (Lill and Muhlenhoff, 2006; Py and Barras, 2010) (FIG. 53A). To investigate the effect of elesclomol on mitochondrial Fe—S cluster biosynthesis, we utilized in vitro Fe—S cluster assembly assays. […] As further confirmation, we examined the effect of elesclomol on electron transfer from reduced FDX1 to the ISC core complex upon the addition of cysteine.
Electron transfer assay—Electron transfer from re-FDX1 SDA complex was monitored as follows. 25 μM reduced FDX1 was mixed with 25 μM SDA, and 125 μM L-cysteine was added to initiate the reaction. To test the effect of the drug, samples contained 25-500 μM elesclomol (1-20× relative to FDX1). Samples were then transferred to 1 cm path-length quartz cuvettes, sealed with rubber septa, and UV/vis spectra were collected at 25° C. The growth of absorbance at 456 nm was used to monitor the oxidation of reduced FDX1 as a result of electron transfer to SDA.

The target of assay [2] is T2, cysteine desulfurase (Homo sapiens, UniProt Q9Y697).
T2 construct: made in house
T2 sequence (Q9Y697 56-457): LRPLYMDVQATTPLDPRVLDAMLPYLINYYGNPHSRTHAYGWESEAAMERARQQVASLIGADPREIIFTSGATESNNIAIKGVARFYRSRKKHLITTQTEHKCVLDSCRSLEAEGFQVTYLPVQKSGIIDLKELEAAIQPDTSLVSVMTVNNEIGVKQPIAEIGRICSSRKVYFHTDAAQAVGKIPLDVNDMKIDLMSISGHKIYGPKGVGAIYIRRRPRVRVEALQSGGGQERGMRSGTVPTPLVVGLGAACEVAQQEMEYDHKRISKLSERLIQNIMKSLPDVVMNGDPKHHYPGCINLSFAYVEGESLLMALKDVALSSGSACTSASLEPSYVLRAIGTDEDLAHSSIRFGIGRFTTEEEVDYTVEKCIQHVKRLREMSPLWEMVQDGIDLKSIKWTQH
T2 sequence (Q9HD34 whole entry, further chain): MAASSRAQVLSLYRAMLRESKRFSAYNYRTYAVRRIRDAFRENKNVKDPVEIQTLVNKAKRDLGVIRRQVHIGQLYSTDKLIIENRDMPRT
T2 sequence (P0A6A8 2-78, further chain): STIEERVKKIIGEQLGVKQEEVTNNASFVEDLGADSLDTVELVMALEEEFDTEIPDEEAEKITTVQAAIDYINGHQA
The assay is described as follows: Cysteine desulfurase activity assay. Here is the method: (§1) The in vitro Fe—S cluster assembly was carried out with reduced FDX1 as the reducing agent and detected by following the increase of absorbance at 456 tun following the addition of either of 5× (green) or 10× (yellow, both relative to FDX1) compound-1. […] Fe—S formation was monitored by following the increase of absorbance at 456 nm. […] Cysteine desulfurase activity assay carried out with the indicated concentrations of elesclomol.

The target in assay [3] is T1, FDX1. The assay is described as follows: In vitro Fe-S cluster assembly with reduced FDX1 (absorbance at 456 nm).
Source text: FIGS. 47A-47C: Inhibition of Fe—S formation by elesclomol and variants (in-vitro). […] Note: “x(number) concentration” means that the indicated compound was present at 5 times the concentration of the enzyme.
(FIG. 53A) provides a schematic describing mitochondrial Fe—S cluster biosynthesis. The mitochondrial ISC (iron-sulfur cluster) core complex contains the scaffold protein ISCU and cysteine desulfurase (ACP-ISD11-NFS1)2. The latter catalyzes the conversion of cysteine to alanine and generates S° for iron sulfur cluster assembly. S° is reduced by FDX1. A [2Fe-2S] cluster is subsequently formed on ISCU. […] In vitro Fe—S cluster assembly was carried out with reduced. FDX1 as the reducing agent in the presence or absence of either 5× (green) or 10× (yellow) elesclomol (both relative to FDX1). Fe—S cluster formation was monitored by following the increase of absorbance at 456 nm. […] The red triangle denotes an NMR peak that became severely broadened. […] The [2Fe-2S] cluster in FDX1 is indicated by spheres.
as §1

The target in assay [4] is T1, FDX1. In words: In vitro Fe-S cluster assembly assay with reduced FDX1. The conditions noted are these: reduced FDX1 as reductant; 5x and 10x stoichiometry relative to ISCU and FDX1. The source says: Whether elesclomol can inhibit the functional activity of FDX1 in mediating the Fe—S cluster formation was also examined. […] (FIG. 47A) A “x5 concentration” as shown in FIGS. 47A-47C means that elesclomol (or isoform) was present at 5 times the concentration of the enzyme. The assay used in FIGS. 47A-47C is described in the paper Cai et al., Biochemistry, 2017, 56 (3), pp 487-499.
Fe—S clusters are generated from sulfur extracted from cysteine by the iron sulfur-cluster (ISC) core complex (NFS1-ISD11-Acp-ISCU)2 and iron. A reductant (FDX1 or FDX2) is required for Fc-S cluster biosynthesis (Lill and Muhlenhoff, 2006; Py and Barras, 2010) (FIG. 53A). […]
Protein Expression and Purification—Unlabeled samples of ISCU, unlabeled (NFS1-ISD11-Acp)2 (abbreviated as SDA), unlabeled and [U-^15N]-FDX1 (truncated first 61 amino acids) and unlabeled FDX2 were produced and purified as described previously (Cai et al., 2013; Cai et al., 2017a; Cai et al., 20176). […] The reduction of FDX1 or FDX2 was monitored by the color change from dark brown to light pink and by recording IN/vis spectra before and after reduction. […]
In vitro Fe—S cluster assembly assay—The in vitro Fe—S cluster assembly assays were carried out as follows. […] The growth of absorbance at 456 nm was used to monitor the assembly of [2Fe-2S] clusters.

Turning to `CN(NC(=O)CC(=O)NN(C)C(=S)c1ccccc1)C(=S)c1ccccc1` [elesclomol], in assay [1], the “inhibition of electron transfer from reduced FDX1 to the NFS1 component of the ISC core complex” value is “progressive inhibition of electron transfer”. In assay [2], the “activity of cysteine desulfurase” value is reported as “does not inhibit”. For the same molecule, in assay [3] (5x or 10x relative to FDX1), the “in vitro Fe-S cluster assembly with reduced FDX1” value is “inhibits in vitro Fe—S cluster assembly”. For the same molecule, in assay [3] (x5 concentration relative to enzyme), the “in vitro formation of Fe-S clusters mediated by FDX1” value is “sufficient to induce an inhibitory effect”. Besides, in assay [4], the “inhibition of in vitro Fe-S cluster assembly” value is recorded as “sufficient to induce an inhibitory effect; also recorded: progressively inhibited”.
